In patent publication US5725838A, “Radiolabeled D4 receptor ligands” (Resolution Pharmaceuticals, Inc., priority 1996, dated 1998):

Columns and labels:
[1] = molecular target: T1, human D4 receptor (D4.2 sub-type) (Homo sapiens, UniProt P21917, DEL265-296); assay: D4 receptor binding, 3H-spiperone displacement; settings: membranes of cells stably transfected with human D4.2; 0.25 nM 3H-spiperone; Cheng-Prusoff
T1 construct: expressed in transfected cells; host or cells: HEK 298 (so in the source); probably HEK 293), stably transfected, membrane preparation
T1 sequence (P21917 with tags, fused parts or gaps DEL265-296): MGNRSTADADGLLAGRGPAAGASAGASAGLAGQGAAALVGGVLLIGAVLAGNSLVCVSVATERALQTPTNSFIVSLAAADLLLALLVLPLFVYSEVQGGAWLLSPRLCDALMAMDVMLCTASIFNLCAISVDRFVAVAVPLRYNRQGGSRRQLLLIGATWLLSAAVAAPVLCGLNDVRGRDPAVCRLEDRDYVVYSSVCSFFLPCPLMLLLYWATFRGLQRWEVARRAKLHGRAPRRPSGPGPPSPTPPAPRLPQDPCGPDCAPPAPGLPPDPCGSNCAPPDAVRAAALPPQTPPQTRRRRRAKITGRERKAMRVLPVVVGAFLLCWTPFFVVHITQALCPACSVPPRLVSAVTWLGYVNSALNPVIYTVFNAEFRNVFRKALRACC
Description: The potency of the test compound to reduce ^3 H-spiperone binding directly correlated to its binding affinity for the receptor.
Individual filter disks were put in scintillation vials (Biovials, Bechman).
Ki was calculated by the Cheng and Prustoff transformation: […]
where [L] is the concentration of ^3 H-spiperone used in the assay and KD is the dissociation constant of ^3 H-spiperone determined independently under the same binding conditions.

[2] = molecular target: T2, human D2 receptor (short isoform) (Homo sapiens, UniProt P14416); assay: D2 receptor binding, 3H-spiperone displacement; settings: membranes of GH4 C1 (rat pituitary) cells stably transfected with human D2 short isoform; 0.25 nM 3H-spiperone; Cheng-Prusoff
T2 construct: expressed in transfected cells; host or cells: GH4 C1 (rat pituitary) cells, stably transfected, membrane preparation
T2 sequence (P14416 1-414 isoform P14416-2): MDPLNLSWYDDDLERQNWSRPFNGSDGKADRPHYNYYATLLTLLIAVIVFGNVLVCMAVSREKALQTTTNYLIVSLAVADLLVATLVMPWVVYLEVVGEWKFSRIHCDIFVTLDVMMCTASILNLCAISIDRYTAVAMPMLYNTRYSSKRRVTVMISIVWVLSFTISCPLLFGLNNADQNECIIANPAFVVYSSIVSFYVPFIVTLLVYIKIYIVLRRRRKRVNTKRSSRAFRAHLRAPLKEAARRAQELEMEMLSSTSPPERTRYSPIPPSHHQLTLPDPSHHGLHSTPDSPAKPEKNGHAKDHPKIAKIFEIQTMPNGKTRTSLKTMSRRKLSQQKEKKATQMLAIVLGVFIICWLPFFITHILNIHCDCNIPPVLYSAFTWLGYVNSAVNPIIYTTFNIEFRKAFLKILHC
Description: D2 and D4 receptor-binding affinities of the compounds of Example 3 were evaluated as described in WO95/17400 (incorporated herein by reference) for their ability to reduce binding of ^3 H-spiperone as compared to the reference compound clozapine. The potency of the test compound to reduce ^3 H-spiperone binding directly correlated to its binding affinity for the receptor.
Briefly, the D4 receptor was utilized in the form of membrane preparations obtained from […] cells stably transfected with human D4 receptor (D4.2 sub-type). […] Ready Protein Plus liquid scintillant (5 ml, Beckman) was added and the vials counted by liquid scintillation spectrophotometry (Beckman LSC 6500) after equilibrating for three hours at room temperature to determine total binding (Br).
Non-specific binding for D4 was assayed by incubating membrane homogenate, ^3 H-spiperone and fresh dopamine. Filtrate was counted using the same procedure as in the total binding assay described above to give the non-specific binding value (NSB). Non-specific binding for D2 was similarly assessed, with the exception that (-)-sulpiride was used in place of dopamine.
To assess displacement, membrane homogenate was incubated with ^3 H-spiperone and test compound dissolved in DMSO. Filtrate was counted using the same procedure as in the total binding assay described above, to give the displacement binding value (BD). […]

A Ki [1] of 0.16 nM and a Ki [2] of 2370 nM were found for `Ic1ccc(N2CCN(Cc3c[nH]c4ncccc34)CC2)cc1` [3-[4-(4-iodophenyl)-piperazin-1-yl]methyl-1H-pyrrolo[2,3-b]pyridine] in this work.
